Measurements taken from patent publication EP2323645B1, “USE OF LOW-DOSE LOCAL ANAESTHETIC OR DERIVATIVES THEREOF FOR THERAPY OF CHRONIC PAIN, ESPECIALLY MIGRAINE” (priority 2008, dated 2010).

Test system: therapieresistenter chronischer Sensibilitätsstörungen an Armen und Händen mit Verlust der rohen Kraft
Test: Treatment of therapy-resistant chronic sensory disturbances of arms and hands with loss of strength
Format: in vivo, Patienten

CCN(CC)CC(=O)Nc1c(C)cccc1C [Lidocain]
Remission der Kraftlosigkeit (2 to 4 deep paravertebral injections, middle or lower cervical spine, 0,1 Gew.-%): Spontane Remission | Remission der Sensibilitätsstörungen (after further identical treatment sessions): vollständig nach zwei bis vier weiteren identisch reproduzierten Behandlungssitzungen
